Test results published in patent US7763287B2, “Extract of Cercis chinensis having anti-oxidant activity and anti-aging activity, and cosmetical composition containing the extract for anti-oxidation, skin-aging protection and wrinkle improvement” (Hankook Pharm. Co., Inc., priority 2002, dated 2010).

Columns and labels:
rat brain homogenates = test: Lipid peroxidation inhibitory activity (Fe2+/ascorbic acid, TBA method); details: Table 4
[1] = DPPH radical scavenging activity; assay type: biochemical; details: for DPPH radical scavenging activity IC50: Table 3
Experimental: In order to extract an effective ingredient having an anti-oxidant activity from Cercis chinensis, an experiment was performed following the procedure represented in a schematic diagram of FIG. 1. Particularly, 1 kg of leaves and stems of Cercis chinensis, dried in shadow, were grinded to powder using a pulverizer, which was extracted by ethanol (EtOH) at room temperature twice at intervals of two weeks. For the extraction, ethanol solutions were prepared by adding ethanol gradually, 10% at a time, from 0% to 100%. The prepared ethanol solutions were used for the extraction. […] But, it looses absorbance when being scavenged. Based on that point, an anti-oxidant activity can be measured using DPPH. […] Then, each solution was distributed into a 96 well plate by 10 μl each, into which 190 μl of DPPH(Sigma, St. Louis, Mo, USA) solution whose ethanol concentration was 2×10^−4 M/ml was added. The plate was just left at room temperature for 30 minutes. Finally, OD517 was measured at 517 nm. For a control, DMSO was added instead of the sample, and changes of optical density were investigated. […] DDPH Radical Scavenging Activity (%)=(Acontrol−Asample)/(Acontrol)×100 <Mathematica Formula 1>
Acontrol: Optical density of control group (sample was not added),
Asample: Optical density of experimental group (sample was added).
In order to identify a fraction having an anti oxidant activity among hexane Fr, EtOAc Fr and BuOH Fr obtained above, a DPPH radical scavenging activity was measured using each extract of each fraction following the method used above. At this time, vitamin E, known to have high DPPH radical scavenging activity, was used as a comparing group.
At this time, BHA (tert-butyl-4 hydroxyanisole) and α-tocopherol, synthetic anti-oxidant agents, were used as positive controls.

[2] = Hydroxyl radical scavenging activity (deoxyribose/TBA, method of Halliwell); assay type: biochemical; details: for Hydroxyl radical scavenging activity (%): 10 μg of sample, total volume 1 ml
Experimental: Hydroxyl radical (HO.) is generated by the reaction of a metal ion or a superoxide radical. Owing to its strong reactivity, hydroxyl radical causes oxidative damages to DNA, protein and lipid in vivo. Nitric oxide (NO.) is reacted with a superoxide radical to generate a peroxy nitrite (ONOO—), also having strong reactivity. […] Particularly, each compound was mixed with 10 μg of a sample dissolved in DMSO, phosphate buffer (20 mM, pH 7.4) 5.6 mM deoxyribose, 0.1 mM FeCl3, 1 mM H2O2 and 0.1 mM ascorbic acid, making total volume 1 ml, which was then reacted at 37° C. for 60 minutes. 250 μl of 20% TCA and 250 μl of 1% TBA solution (dissolved in 50 mM NaOH) were added to the reaction solution, followed by thermal reaction at 95° C. for 5 minutes. After completing the reaction, OD532 was measured. Hydroxyl radical scavenging activity was calculated by the below
<Mathematical Formula 3>. BHA and α-tocopherol were used for a positive control. Hydroxyl Radical Scavenging Activity (%)=(Acontrol−Asample)/(Acontrol−Ablank)×100 <Mathematical Formula 3>
Acontrol: Optical density of control group well (sample was not added),
Asample: Optical density of experimental group well (sample was added),
Ablank: Optical density of well not added with sample, TCA and TBA

HEK-N/F cells = test: Protection of cells from oxidative damage induced by t-butylhydroperoxide; assay type: cell-based, human; details: 1.5 mM t-butylhydroperoxide 3 hours; for TBARS (pmol/mg protein): compound 50.0 µg/ml
Experimental: t-butylhydroperoxide is metabolized into a free radical intermediate as it comes in a cell, so that it causes lipid peroxidation, resulting in cell damage. This phenomenon is similar to that caused by oxidataive stress accumulated in cells and tissues. […] HEK-N/F, an epidermal cell line of a newborn baby, was treated with 1.5 mM of t-butylhydroxyperoxide for 3 hours.

[3] = Nitric oxide scavenging activity; assay type: biochemical; design: Nitric oxide scavenging activity (%): concentration or dose not given beside the values
[4] = Superoxide radical scavenging activity (xanthine/xanthine oxidase, NBT); assay type: biochemical; details: Table 6
Experimental: Superoxide radical (O^2−) itself has a little reactivity, but is easily changed into H2O2 that generates hydroxyl radical having strong reactivity or is reacted with nitric oxide (NO.) to generate peroxy nitrite (ONOO^−) having strong reactivity, too. Thus, it might be a reason for oxidation of SH-group, nitration of protein tyrosine, lipid peroxidation and DNA damage. […] Basically, measurement of superoxide radical scavenging activity was performed by investigating the activity of superoxide dismutase (SOD), an enzyme scavenging superoxide by dismutation of the same. In the present invention, an activity of a sample to inhibit superoxide production by the enzyme reaction of xanthine/xanthine oxidase and its another activity to inhibit reaction (NBT+20^2−→NBTH2+2O2) generating formazan by reduction of nitro blue tetrazolium (referred as ‘NBT’ hereinafter) were measured. Particularly, wells of a 96-well plate were supplemented with 50 μl of 4 mM xanthine (Sigma), 50 μl of […] NBT (Sigma), 50 μl of 50 mM phosphate buffer (pH 7.8, 1 mM EDTA) and 10 μl of each sample, into which 40 μl of xanthine oxidase was added to induce a reaction. After the reaction was completed, each reaction solution was collected as scheduled, and OD550 was measured with an ELISA reader. […] Superoxide Radical Scavenging Activity (%)=(Acontrol−Asample)/(Acontrol−Ablank)×100 <Mathematical Formula 4> […]

[5] = tested on: back skin of SKH-1 hairless mouse; test: Protection of skin tissues from UVB irradiation in hairless mice; assay type: in vivo
Experimental: 5-6 week old female hairless mice (SKH-hr 1) were raised for 14 days at 24±2° C. with 50±10% relative humidity and 12 hour day/night cycle. 30-60 minutes before the experiment, a sample was hyperdermically injected on 5 spots of the mice and the backs of the mice were irradiated by UVB. 5 mice per each group were put in a cage (20×15×5 cm) and UVB irradiation was performed using a UV lamp (HP-15M, 280-400 nm, max. 312 nm; Atto Co., Japan) at 15 cm distance by 15 kJ/m^2. After the completion of UV irradiation for 24 hours, back skin was cut and stored at −70° C. until peroxidation was measured.
UVB irradiation causes serious lipid peroxidation in skin tissues, so measurement of the peroxided lipid content might lead to the measurement of skin damages. Particularly, UVB was irradiated on the back skin of SKH-1 hairless mouse. 48 hours later, the back skin tissues were cut to measure lipid peroxidation by thiobarbituric acid (TBA) method. The back skin of the mouse was put in a 10×50 mM K-P buffer solution for homogenation.
Hydrogen peroxidation was also investigated. The frozen back skin section was put in 0.1 M Tris-HCl buffer solution (pH 7.5) containing 1 mg/ml of glucose and 1 mg/ml diaminobenzidine (DAB), which was cultured at 37° C. for 5-6 hours. After being washed with distilled water, the solution was stained with 2% methyl green for 60 minutes. Nucleus stained blue and DAB peroxidase (brown) were observed under a microscope.

Compound | Lipid Peroxidation Inhibitory Activity IC50 (rat brain homogenates) [µg/mL] | DPPH radical scavenging activity IC50 [1] [µg/mL] | Hydroxyl radical scavenging activity (in words) [2] | Hydroxyl radical scavenging activity (%) [2] [%] | Cell survival rate (%) (HEK-N/F cells) | TBARS (pmol/mg protein) (HEK-N/F cells) | Nitric oxide scavenging activity (%) [3] [%] | Superoxide radical scavenging activity IC50 [4] [µg/mL] | DPPH radical scavenging activity (in words) [1] | Nitric oxide scavenging activity (in words) [3] | TBARS (nmol/mg protein) ([5]; treating amount 30 mg/kg + UVB irradiation) | TBARS (nmol/mg protein) ([5]; treating amount 50 mg/kg + UVB irradiation)
CCOC(=O)c1cc(O)c(O)c(O)c1 [Chemical Formula 8, ethyl gallate] | 7.01 ± 0.62 | 7.0 ± 1.0 | remarkably higher hydroxyl radical scavenging activities | 44.0 | 43.1±4.1 | 1115.6 ± 96.2 | 33.4 ± 2.1 | 15.8 ± 1.6 | – | – | – | –
CC1OC(Oc2c(-c3cc(O)c(O)c(O)c3)oc3cc(O)cc(O)c3c2=O)C(OC(=O)c2cc(O)c(O)c(O)c2)C(O)C1O [Chemical Formula 13, myricetin-3-O-(2″-O-galloyl)-α-L-rhamnopyranoside] | 4.73 ± 0.41 | 8.6 ± 0.7 | remarkably higher hydroxyl radical scavenging activities | 45.4 | 45.1 ± 3.6 | 1019.8 ± 154.0 | 23.0 ± 0.6 | 13.2 ± 2.5 | – | – | – | –
COc1cc(-c2oc3cc(O)cc(O)c3c(=O)c2O[C@@H]2O[C@H](CO[C@@H]3O[C@@H](C)[C@H](O)[C@@H](O)[C@H]3O)[C@@H](O)[C@H](O)[C@H]2O)cc(OC)c1O [Chemical Formula 14, syringetin-3-O-rutinoside] | 19.0 ± 1.52 | 35.1 ± 1.5 | – | 10.2 | 20.0 ± 2.6 | 2928.1 ± 209.9 | 6.0 ± 0.8 | 45.2 ± 2.2 | – | – | – | –
Oc1cc(O)c2c(c1)O[C@H](c1ccc(O)c(O)c1)[C@@H](O)C2 [Chemical Formula 16, (+)-catechin] | 4.71 ± 0.26 | 15.6 ± 0.8 | – | 12.7 | 24.5 ± 1.9 | 1912.4 ± 112.0 | 16.9 ± 1.1 | 16.5 ± 2.0 | strong radical scavenging activity | comparatively high nitric oxide scavenging activity | – | –
O=C1O[C@H]([C@@H](O)CO)C([O-])=C1OP(=O)([O-])[O-].O=C1O[C@H]([C@@H](O)CO)C([O-])=C1OP(=O)([O-])[O-].[Mg+2].[Mg+2].[Mg+2] [MAP, magnesium-L-ascorbyl-2-phosphate, reference compound] | – | – | – | – | – | – | – | – | – | – | 0.28 ± 0.06 | 0.16 ± 0.05
(−)-epicatechin-3-O-gallate [Chemical Formula 17] | 2.90 ± 0.06 | 6.8 ± 0.5 | remarkably higher hydroxyl radical scavenging activities | 39.9 | 49.4 ± 6.4 | 1007.3 ± 95.2 | 25.4 ± 1.2 | 11.9 ± 2.1 | – | comparatively high nitric oxide scavenging activity | – | –
(−)-epigallocatechin-3-O-gallate [Chemical Formula 18] | 1.00 ± 0.08 | 6.7 ± 0.4 | remarkably higher hydroxyl radical scavenging activities | 54.0 | 46.6 ± 5.9 | 1032.6 ± 103.5 | 26.2 ± 0.9 | 24.0 ± 3.5 | – | comparatively high nitric oxide scavenging activity | – | –
